Measured values from US11713309B2, “Solid forms of Cerdulatinib” (Alexion Pharmaceuticals, Inc., priority 2018, dated 2023).
Values after ≈ are worked out from the molar mass of the structure shown.

Experiments:
Format in all cases: physicochemical
[1] = Kinetic solubility in SGF; conditions: for Solubility (mg/mL) 1 h / Solubility (mg/mL) 2 h / Solubility (mg/mL) 4 h / Solubility (mg/mL) 24 h: 37° C.; for Solubility (mg/mL) 1 h: drug loading ~10 mg/mL as freebase; for pH 1 h / pH 2 h / pH 4 h / pH 24 h: supernatant, SGF (native pH 1.8)
Method: (§1) Kinetic solubility testing was conducted as follows: About 40-55 mg material was weighed into a 5-mL EP pipe. 4 mL of water/bio-relevant media (SGF, FaSSIF, or FeSSIF) was added into the corresponding sample pipe (drug loading: ˜10 mg/mL calculated as freebase). The pipes were capped tightly and the material was verified to be in contact with the media. The sample vials were placed on a roller and start rolling at 37° C. (rate: 25 r/min). Samples were taken at 1, 2, 4, 24 h. For each time point, 1.0 mL of suspension was transferred into a 2-mL centrifuge tube and the samples were centrifuged. The supernatant was filtered via 0.45 μm PTFE membrane and solubility and pH were measured. An XRPD test on residual solids was conducted.

[2] = Kinetic solubility in water; conditions: 37° C.; for pH of supernatant: water (native pH 7.6)
Method: as §1

[3] = Kinetic solubility in FaSSIF; conditions: for Solubility (mg/mL) 1 h / Solubility (mg/mL) 2 h / Solubility (mg/mL) 4 h / Solubility (mg/mL) 24 h / Final Form: FaSSIF; for Solubility (mg/mL) 1 h / Solubility (mg/mL) 2 h / Solubility (mg/mL) 4 h / Solubility (mg/mL) 24 h: 37° C.; for Solubility (mg/mL) 1 h: drug loading ~10 mg/mL as freebase; for Final Form: XRPD of residual solids; for Solubility (mg/mL) 1 h / Final Form / pH 1 h: 1 h; for Solubility (mg/mL) 2 h / Final Form / pH 2 h: 2 h; for Solubility (mg/mL) 4 h / Final Form / pH 4 h: 4 h; for Solubility (mg/mL) 24 h / Final Form / pH 24 h: 24 h; for pH 1 h / pH 2 h / pH 4 h / pH 24 h: supernatant, FaSSIF (native pH 6.5)
Method: as §1

[4] = Kinetic solubility in FeSSIF; conditions: for Solubility (mg/mL) 1 h / Solubility (mg/mL) 2 h / Solubility (mg/mL) 4 h / Solubility (mg/mL) 24 h: 37° C.; for Solubility (mg/mL) 1 h: drug loading ~10 mg/mL as freebase; for pH 1 h / pH 2 h / pH 4 h / pH 24 h: supernatant
Method: as §1

[5] = 1 h, listed as Naphthalene disulfonate Type A
[6] = 2 h, listed as Naphthalene disulfonate Type A
[7] = 4 h, listed as Naphthalene disulfonate Type A
[8] = 24 h, listed as Naphthalene disulfonate Type A
[9] = listed as Naphthalene disulfonate Type A

## CCS(=O)(=O)N1CCN(c2ccc(Nc3ncc(C(N)=O)c(NC4CC4)n3)cc2)CC1 [4-(cyclopropylamino)-2-(4-(4-(ethylsulfonyl)piperazin-1-yl)phenylamino)pyrimidine-5-carboxamide]
[1]; SGF, 1 h, listed as Naphthalene disulfonate Type A
  Solubility (mg/mL) 1 h: 0.019 mg/mL (≈ 42.6 µM)
[1]; SGF, 2 h, listed as Naphthalene disulfonate Type A
  Solubility (mg/mL) 2 h: 0.016 mg/mL (≈ 35.9 µM)
[1]; SGF, 4 h, listed as Naphthalene disulfonate Type A
  Solubility (mg/mL) 4 h: 0.018 mg/mL (≈ 40.4 µM)
[1]; SGF, 24 h, listed as Naphthalene disulfonate Type A
  Solubility (mg/mL) 24 h: 0.016 mg/mL (≈ 35.9 µM)
[1]; [5]
  pH 1 h: 2.0
[1]; [6]
  pH 2 h: 1.9
[1]; [7]
  pH 4 h: 2.0
[1]; [8]
  pH 24 h: 1.8
[2]; [5]
  pH of supernatant: 2.8
[2]; [6]
  pH of supernatant: 2.6
[2]; [7]
  pH of supernatant: 2.5
[2]; [8]
  pH of supernatant: 2.4
[2]; water, 1 h, listed as Naphthalene disulfonate Type A
  Kinetic solubility: 1.4 µg/mL
[2]; water, 2 h, listed as Naphthalene disulfonate Type A
  Kinetic solubility: 2.5 µg/mL
[2]; water, 4 h, listed as Naphthalene disulfonate Type A
  Kinetic solubility: 1.5 µg/mL
[2]; water, 24 h, listed as Naphthalene disulfonate Type A
  Kinetic solubility: 1.6 µg/mL
[3]; [9]
  Solubility (mg/mL) 1 h: 0.0035 mg/mL (≈ 7.86 µM)
  Solubility (mg/mL) 2 h: 0.0037 mg/mL (≈ 8.3 µM)
  Solubility (mg/mL) 4 h: 0.0030 mg/mL (≈ 6.73 µM)
  Solubility (mg/mL) 24 h: 0.0027 mg/mL (≈ 6.06 µM)
  Final Form: New form X
  pH 1 h: 2.8
  pH 2 h: 2.7
  pH 4 h: 2.6
  pH 24 h: 2.5
[4]; [5]
  Solubility (mg/mL) 1 h: 0.0088 mg/mL (≈ 19.8 µM)
  pH 1 h: 4.6
[4]; [6]
  Solubility (mg/mL) 2 h: 0.0079 mg/mL (≈ 17.7 µM)
  pH 2 h: 4.6
[4]; [7]
  Solubility (mg/mL) 4 h: 0.0069 mg/mL (≈ 15.5 µM)
  pH 4 h: 4.6
[4]; [8]
  Solubility (mg/mL) 24 h: 0.0059 mg/mL (≈ 13.2 µM)
  pH 24 h: 4.6
[4]; XRPD of residual solids, 1 h, 2 h, 4 h, 24 h, listed as Naphthalene disulfonate Type A
  Final Form: New form X

## CCS(=O)(=O)N1CCN(c2ccc(Nc3ncc(C(N)=O)c(NC4CC4)n3)cc2)CC1 [Compound I esylate Type A, 4-(cyclopropylamino)-2-(4-(4-(ethylsulfonyl)piperazin-1-yl)phenylamino)pyrimidine-5-carboxamide]
[1]; SGF, 1 h, listed as Esylate Type A
  Solubility (mg/mL) 1 h: 0.092 mg/mL (≈ 206 µM)
[1]; SGF, 2 h, listed as Esylate Type A
  Solubility (mg/mL) 2 h: 0.10 mg/mL (≈ 224 µM)
[1]; SGF, 4 h, listed as Esylate Type A
  Solubility (mg/mL) 4 h: 0.087 mg/mL (≈ 195 µM)
[1]; SGF, 24 h, listed as Esylate Type A
  Solubility (mg/mL) 24 h: 0.083 mg/mL (≈ 186 µM)
[1]; XRPD of residual solids, SGF, 1 h, 2 h, 4 h, 24 h
  Final Form: HC1 salt Form I
[1]; 1 h, listed as Esylate Type A
  pH 1 h: 2.1
[1]; 2 h, listed as Esylate Type A
  pH 2 h: 1.9
[1]; 4 h, listed as Esylate Type A
  pH 4 h: 2.1
[1]; 24 h, listed as Esylate Type A
  pH 24 h: 1.9
[2]; 1 h, listed as Esylate Type A
  pH of supernatant: 2.3
[2]; 2 h, listed as Esylate Type A
  pH of supernatant: 2.0
[2]; 4 h, listed as Esylate Type A
  pH of supernatant: 2.2
[2]; 24 h, listed as Esylate Type A
  pH of supernatant: 2.1
[2]; water, 1 h, 2 h, 4 h, 24 h, listed as Esylate Type A
  Final Form of residual solids (XRPD): Freebase Form II
[2]; water, 1 h, listed as Esylate Type A
  Kinetic solubility: 1700 µg/mL
[2]; water, 2 h, listed as Esylate Type A
  Kinetic solubility: 1500 µg/mL
[2]; water, 4 h, listed as Esylate Type A
  Kinetic solubility: 1400 µg/mL
[2]; water, 24 h, listed as Esylate Type A
  Kinetic solubility: 1300 µg/mL
[3]; listed as Esylate Type A
  Solubility (mg/mL) 1 h: 0.015 mg/mL (≈ 33.7 µM)
  Solubility (mg/mL) 2 h: 0.012 mg/mL (≈ 26.9 µM)
  Solubility (mg/mL) 4 h: 0.024 mg/mL (≈ 53.9 µM)
  Solubility (mg/mL) 24 h: 0.0040 mg/mL (≈ 8.98 µM)
  pH 1 h: 5.2
  pH 2 h: 5.0
  pH 4 h: 4.3
  pH 24 h: 3.8
[3]
  Final Form: Freebase Form II
[4]; 1 h, listed as Esylate Type A
  Solubility (mg/mL) 1 h: 0.060 mg/mL (≈ 135 µM)
  pH 1 h: 4.8
[4]; 2 h, listed as Esylate Type A
  Solubility (mg/mL) 2 h: 0.027 mg/mL (≈ 60.6 µM)
  pH 2 h: 4.7
[4]; 4 h, listed as Esylate Type A
  Solubility (mg/mL) 4 h: 0.014 mg/mL (≈ 31.4 µM)
  pH 4 h: 4.7
[4]; 24 h, listed as Esylate Type A
  Solubility (mg/mL) 24 h: 0.011 mg/mL (≈ 24.7 µM)
  pH 24 h: 4.4
[4]; XRPD of residual solids, 2 h, 4 h, 24 h
  Final Form 2 h, 4 h, 24 h: Freebase Form II
